The compounds below were run against human recombinant 5-HT2A receptor (Homo sapiens (Human), UniProt P28223) (assay: 5-HT2A receptor binding inhibition test ([3H]-Ketanserin)). Conditions: Jump-In HEK cell membrane, 25° C. 1.5 hours, read-out: h-5-HT2A Ki.
Protocol: Test Example 1: 5-HT2A Receptor Binding Inhibition Test
(§1) (Each Experimental Condition)
Cell membrane: 15 μg of Jump-In HEK cell membrane (expressing human recombinant 5-HT2A receptor) per well
(§2) Assay buffer: Tris-HCl 50 mmol/L (pH 7.4) containing NaCl 120 mmol/L, MgCl2·6H2O 1 mmol/L, KCl 5 mmol/L, 0.1% BSA and CaCl2 2 mmol/L
Radioactive ligand: [^3H]-Ketanserin with a final concentration of around Kd value calculated by the following method
Non-specific ligand: Serotonin HCl with a final concentration of 500 μmol/L
(§3) The Kd value is calculated when the lot of cell membrane is changed. In advance, 0.5 μL of a 1 mmol/L compound for non-specific binding calculation dissolved in DMSO or DMSO is dispensed into a microplate, and the cell membrane is diluted with an Assay buffer. The radioactive ligand solution is serially diluted and the count is confirmed with a liquid scintillator. Assay buffer containing diluted cell membrane is dispensed into a microplate at 50 μL/well. Then, the radioactive ligand solution is dispensed into a microplate at 50 μL/well, and the plate is sealed. It is allowed to stand at room temperature (25° C.) for 1.5 hours. During this period, 50 mmol/L Tris-HCl (pH 7.4) is dispensed into a GF/B UniFilter plate at 50 μL/well and allowed to stand at 4° C. for 1 hour or longer. After that, filtration is performed with Cell harvester (PerkinElmer). The radioactive ligand solution is dispensed into an empty well of the GF/B UniFilter plate at 10 μL/well. After the GF/B UniFilter plate is dried at room temperature, MicroScinti 20 is dispensed into the GF/B UniFilter plate at 50 μL/well to seal the plate. The GF/B UniFilter plate is allowed to stand overnight at room temperature. The radioactivity of [^3H]-Ketanserin bound to the 5-HT2A receptor is measured using Microbeta2 (PerkinElmer) at a measurement time of 1 min/well. The Saturation curve is drawn from the measured value, and the Kd value is calculated from the slope of the Scatchard Plot.
(§4) (Binding Test of the Compound According to the Present Invention)
In advance, 0.5 μL of the compound solution dissolved in DMSO is dispensed into a microplate, and the cell membrane and the hot ligand are diluted with Assay buffer, respectively. Then, the Assay buffer containing the diluted cell membrane is dispensed into a microplate at 50 μL/well. Then, the radioactive ligand solution is dispensed into a microplate at 50 μL/well, and the plate is sealed. Then, it is allowed to stand at room temperature (25° C.) for 1.5 hours. During this period, 50 mmol/L Tris-HCl (pH 7.4) is dispensed into a GF/B UniFilter plate at 50 μL/well and allowed to stand at 4° C. for 1 hour or longer. After that, filtration is performed with Cell harvester (PerkinElmer). After the GF/B UniFilter plate is dried at room temperature, MicroScinti 20 is dispensed into the GF/B UniFilter plate at 50 μL/well to seal the plate. The GF/B UniFilter plate is allowed to stand overnight at room temperature. The radioactivity of [^3H]-Ketanserin bound to the 5-HT2A receptor is measured using Microbeta2 (PerkinElmer) at a measurement time of 1 min/well. The non-specific binding is calculated from the radioactivity of [^3H]-Ketanserin in the presence of 500 μmol/L Serotonin HCl which is the unlabeled ligand, and the total binding is calculated from the radioactivity of [^3H]-Ketanserin in the absence of the compound according to the present invention (Vehicle). Finally, the Ki value is calculated from the dose-response curve.
(§5) (The binding activity of the compound according to the present invention is calculated from the following binding inhibition rate (%).)
(§6) [formula] • a; mean cpm of non-specific binding • b; average cpm of total binding • c; cpm in the presence of the test compound

Chain of human recombinant 5-HT2A receptor (P28223 whole entry): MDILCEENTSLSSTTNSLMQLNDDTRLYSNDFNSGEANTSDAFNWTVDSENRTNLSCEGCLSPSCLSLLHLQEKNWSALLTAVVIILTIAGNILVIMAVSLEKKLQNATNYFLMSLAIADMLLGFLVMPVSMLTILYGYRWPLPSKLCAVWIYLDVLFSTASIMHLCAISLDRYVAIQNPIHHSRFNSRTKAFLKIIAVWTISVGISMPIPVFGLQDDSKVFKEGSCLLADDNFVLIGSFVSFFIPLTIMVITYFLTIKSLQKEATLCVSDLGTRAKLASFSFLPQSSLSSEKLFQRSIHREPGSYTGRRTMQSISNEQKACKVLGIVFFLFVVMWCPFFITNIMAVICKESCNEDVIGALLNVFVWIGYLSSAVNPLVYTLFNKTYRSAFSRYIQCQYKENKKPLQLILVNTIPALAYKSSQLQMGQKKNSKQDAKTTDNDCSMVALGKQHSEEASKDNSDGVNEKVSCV

Row | SMILES | Ki [nM]
1 | Cc1nc(CN(Cc2cc3ccc(Br)cc3s2)C2=NOC3(CCN(C)CC3)N2)co1 [Compound I-102] | < 10
2 | COc1ccc(CN(Cc2coc(C)n2)C2=NOC3(CCN(C)CC3)N2)nc1 [Compound I-121] | 10 to 100
3 | Cc1nc(CN(Cc2ccc(OCC(C)C)cc2F)C2=NOC3(CCNCC3)N2)co1 [Compound I-131] | < 10
4 | CCCc1ccc(CN(Cc2coc(C)n2)C2=NOC3(CCN(C)CC3)N2)c(F)c1 [Compound I-109] | < 10
5 | Cc1cnc(CN(Cc2ccc(OCC(C)C)cc2)C2=NC(=O)C3(CCN(C)CC3)N2)nc1 [Compound I-061] | 10 to 100
6 | Cc1nc(CN(Cc2ccc(OCC(C)C)cc2)C2=NO[C@@]3(CCNC[C@H]3F)N2)co1 (racemic) [Compound I-085] | < 10
7 | Cn1ccc(CN2C(Cc3ccc(OC4CC4)cc3)=NOC23CCNCC32CC2)n1 (racemic) [Compound I-038] | 10 to 100
8 | CCCc1ccc(CN(Cc2coc(C)n2)C2=NOC3(CCN(C)CC3)N2)cc1F [Compound I-110] | < 10
9 | CC(C)COc1ccc(CN(Cc2ccc(F)cn2)C2=NC(=O)C3(CCN(C)CC34CC4)N2)cc1 (racemic) [Compound I-042] | 10 to 100
10 | Cc1ncc(CN(Cc2ccc(OCC(C)C)cc2)C2=NOC3(CCN(C)CC3)N2)o1 [Compound I-053] | < 10
11 | CC(C)COc1ccc(CN(Cc2ccc(F)cc2)C2=NC(=O)C3(CCNCC3)N2)cc1 [Compound I-022] | < 10
12 | Cc1nc(CN(Cc2cc3ccccc3s2)C2=NOC3(CCN(C)CC3)N2)co1 [Compound I-123] | < 10
13 | CCCOc1ccc(CN(Cc2coc(C)n2)C2=NOC3(CCNCC3)N2)c(Cl)c1 [Compound I-129] | < 10
14 | CC(C)COc1ccc(CN(Cc2cn(C)cn2)C2=NOC3(CCN(C)CC3)N2)cc1 [Compound I-019] | < 10
15 | Cc1nc(CN(Cc2ccc3ccccc3c2)C2=NOC3(CCN(C)CC3)N2)co1 [Compound I-097] | < 10
16 | Cc1ccc(CN(Cc2ccc(OCC(C)C)cc2)C2=NC(=O)C3(CCN(C)CC3)N2)nc1 [Compound I-062] | < 10

Each compound was assayed against human recombinant 5-HT2C receptor (Homo sapiens (Human), UniProt P28335) (assay: 5-HT2C receptor binding inhibition test ([3H]-Mesulergine)). Conditions: Jump-In HEK cell membrane, 37° C. 2 hours, read-out: h-5-HT2C Ki.
Chain of human recombinant 5-HT2C receptor (P28335 33-458): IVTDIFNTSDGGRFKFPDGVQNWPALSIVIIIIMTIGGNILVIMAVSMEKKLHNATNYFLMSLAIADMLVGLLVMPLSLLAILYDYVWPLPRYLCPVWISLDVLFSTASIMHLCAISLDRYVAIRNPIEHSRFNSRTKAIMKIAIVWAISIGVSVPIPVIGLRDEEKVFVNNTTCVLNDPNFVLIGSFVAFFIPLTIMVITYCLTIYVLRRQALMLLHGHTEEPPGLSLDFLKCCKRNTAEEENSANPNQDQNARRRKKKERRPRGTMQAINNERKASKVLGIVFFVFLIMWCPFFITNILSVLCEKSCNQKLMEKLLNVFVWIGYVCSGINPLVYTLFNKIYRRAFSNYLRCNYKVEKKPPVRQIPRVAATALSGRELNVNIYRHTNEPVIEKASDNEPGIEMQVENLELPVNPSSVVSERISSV
Protocol: Test Example 2: 5-HT2C Receptor Binding Inhibition Test
as §1
Cell membrane: 0.5 μg of Jump-In HEK cell membrane (expressing human recombinant 5-HT2C receptor) per well
as §2
Radioactive ligand: [^3H]-Mesulergine with a final concentration of around Kd value calculated by the following method
Non-specific ligand: Serotonin HCl with a final concentration of […]
as §3, with “37° C.” for “room temperature (25° C.)”, “2” for “1.5”, “[^3H]-Mesulergine” for “[^3H]-Ketanserin”, “5-HT2C” for “5-HT2A”
as §4
In advance, 0.5 μL of the compound solution dissolved in DMSO is dispensed into a microplate, and the cell membrane and the hot ligand are diluted with Assay buffer, respectively. Then, the Assay buffer containing the diluted cell membrane is dispensed into a microplate at 50 μL/well. Then, the radioactive ligand solution is dispensed into a microplate at 50 μL/well, and the plate is sealed. Then, it is allowed to stand at 37° C. for 2 hours. During this period, 50 mmol/L Tris-HCl (pH 7.4) is dispensed into a GF/B UniFilter plate at 50 μL/well and allowed to stand at 4° C. for 1 hour or longer. After that, filtration is performed with Cell harvester (PerkinElmer). After the GF/B UniFilter plate is dried at room temperature, MicroScinti 20 is dispensed into the GF/B UniFilter plate at 50 μL/well, and the plate is sealed. The GF/B UniFilter plate is allowed to stand overnight at room temperature. The radioactivity of [^3H]-Mesulergine bound to the 5-HT2C receptor is measured using Microbeta2 (PerkinElmer) at a measurement time of 1 min/well. The non-specific binding is calculated from the radioactivity of […] in the presence of 500 μmol/L Serotonin HCl which is the unlabeled ligand, and the total binding is calculated from the radioactivity of [^3H]-Mesulergine in the absence of the compound according to the present invention (Vehicle). Finally, the Ki value is calculated from the dose-response curve.
as §5, §6

Row | SMILES | Ki [nM]
17 | Cc1nc(CN(Cc2cc3ccc(Br)cc3s2)C2=NOC3(CCN(C)CC3)N2)co1 [Compound I-102] | < 10
18 | COc1ccc(CN(Cc2coc(C)n2)C2=NOC3(CCN(C)CC3)N2)nc1 [Compound I-121] | 10 to 100
19 | Cc1nc(CN(Cc2ccc(OCC(C)C)cc2F)C2=NOC3(CCNCC3)N2)co1 [Compound I-131] | < 10
20 | CCCc1ccc(CN(Cc2coc(C)n2)C2=NOC3(CCN(C)CC3)N2)c(F)c1 [Compound I-109] | < 10
21 | Cc1cnc(CN(Cc2ccc(OCC(C)C)cc2)C2=NC(=O)C3(CCN(C)CC3)N2)nc1 [Compound I-061] | 10 to 100
22 | Cc1nc(CN(Cc2ccc(OCC(C)C)cc2)C2=NO[C@@]3(CCNC[C@H]3F)N2)co1 (racemic) [Compound I-085] | < 10
23 | Cn1ccc(CN2C(Cc3ccc(OC4CC4)cc3)=NOC23CCNCC32CC2)n1 (racemic) [Compound I-038] | < 10
24 | CCCc1ccc(CN(Cc2coc(C)n2)C2=NOC3(CCN(C)CC3)N2)cc1F [Compound I-110] | < 10
25 | CC(C)COc1ccc(CN(Cc2ccc(F)cn2)C2=NC(=O)C3(CCN(C)CC34CC4)N2)cc1 (racemic) [Compound I-042] | 10 to 100
26 | Cc1ncc(CN(Cc2ccc(OCC(C)C)cc2)C2=NOC3(CCN(C)CC3)N2)o1 [Compound I-053] | < 10
27 | CC(C)COc1ccc(CN(Cc2ccc(F)cc2)C2=NC(=O)C3(CCNCC3)N2)cc1 [Compound I-022] | < 10
28 | Cc1nc(CN(Cc2cc3ccccc3s2)C2=NOC3(CCN(C)CC3)N2)co1 [Compound I-123] | < 10
29 | CCCOc1ccc(CN(Cc2coc(C)n2)C2=NOC3(CCNCC3)N2)c(Cl)c1 [Compound I-129] | < 10
30 | CC(C)COc1ccc(CN(Cc2cn(C)cn2)C2=NOC3(CCN(C)CC3)N2)cc1 [Compound I-019] | 100 to 500
31 | Cc1nc(CN(Cc2ccc3ccccc3c2)C2=NOC3(CCN(C)CC3)N2)co1 [Compound I-097] | < 10
32 | Cc1ccc(CN(Cc2ccc(OCC(C)C)cc2)C2=NC(=O)C3(CCN(C)CC3)N2)nc1 [Compound I-062] | 10 to 100

From patent publication US20250026765A1, “SPIROHETEROCYCLE DERIVATIVE HAVING SEROTONIN RECEPTOR BINDING ACTIVITY” (Shionogi & Co., Ltd., priority 2021, published 2025)
